Source: patent US20230321123A1, “INHIBITORS OF PSEUDOMONAS AERUGINOSA VIRULENCE FACTOR LasB” (Helmholtz-Zentrum Für Infektionsforschung GmbH, priority 2020, published 2023)

Key:
hERG potassium channel = hERG potassium channel (Homo sapiens, UniProt Q12809); experiment: hERG inhibition; assay type: biochemical
Text: (§1) As the compound of example 2 has shown an impressive activity in the in vitro LasB inhibition assay, high selectivity over a broad spectrum of human enzymes and no signs of cytotoxicity in vitro, it has been subjected to a more advanced safety screening (Table 9).

MMP-7 = biological target: T1, MMP-7 (Homo sapiens, UniProt P09237); experiment: Selectivity against human off-targets: MMP-7; assay type: biochemical; settings: read-out: Inhibition [%] MMP-7
T1 sequence (P09237 95-267): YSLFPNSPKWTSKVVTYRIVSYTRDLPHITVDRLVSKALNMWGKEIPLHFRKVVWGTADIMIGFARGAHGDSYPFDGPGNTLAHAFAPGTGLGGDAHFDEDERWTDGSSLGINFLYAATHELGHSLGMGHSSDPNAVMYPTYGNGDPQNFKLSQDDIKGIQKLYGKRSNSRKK
Text: (§2) The inhibition of zinc-containing human enzymes is described frequently for LasB inhibitors and poses a serious difficulty in the development of selective compounds. Particularly, the inhibition of matrix metalloproteases (MMPs) should be avoided. To further investigate this issue, three derivatives (the compounds of examples 1, 5 and 8) have been tested for their selectivity against several human off-targets, including six MMPs, ADAM17 (TACE), HDAC-3 and HDAC-8 (Table 4). The selectivity of the compounds is particularly high for MMPs and HDACs, whereas the inhibition of ADAM17 was considerably stronger.

Cytotoxicity HepG2 = assay type: cell-based; settings: human; HepG2
Experimental: The compounds of examples 1 and 5 were not toxic against the cell lines HepG2, HEK293 and A549 (Table 5). Additionally, the inhibitory effect against P. aeruginosa PA14 was evaluated to exclude an antibacterial effect of the compounds of the present invention. This is important as it was the aim to target virulence and not viability of the bacteria. […]

[1] = Pharmacokinetic (PK) studies in mice; assay type: in vivo; settings: 10 mg/kg
Experimental: Moreover, the compound of example 2 was subjected to pharmacokinetic (PK) studies in mice (Table 10). Injected intravenously (i.v.) at a dose of 10 mg/kg, it is detectable in blood for 2 h.

HDAC-8 = biological target: T2, HDAC-8 (Homo sapiens, UniProt Q9BY41); experiment: Selectivity against human off-targets: HDAC-8; assay type: biochemical; settings: read-out: IC50 HDAC-8
T2 sequence (Q9BY41 1-377): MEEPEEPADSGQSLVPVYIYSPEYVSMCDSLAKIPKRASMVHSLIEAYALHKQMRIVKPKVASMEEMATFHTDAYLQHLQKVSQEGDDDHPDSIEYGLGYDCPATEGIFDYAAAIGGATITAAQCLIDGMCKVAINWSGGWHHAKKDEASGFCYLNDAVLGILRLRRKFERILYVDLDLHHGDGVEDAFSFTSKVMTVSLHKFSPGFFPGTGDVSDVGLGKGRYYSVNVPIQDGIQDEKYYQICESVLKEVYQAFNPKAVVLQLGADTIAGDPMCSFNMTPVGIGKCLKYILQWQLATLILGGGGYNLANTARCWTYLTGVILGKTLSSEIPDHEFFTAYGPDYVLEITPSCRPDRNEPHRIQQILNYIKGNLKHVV
Text: as §2

CYP3A4 = CYP3A4 (Homo sapiens, UniProt P08684); experiment: CYP inhibition CYP3A4; assay type: in vitro ADME
CYP3A4, sequence (P08684 whole entry): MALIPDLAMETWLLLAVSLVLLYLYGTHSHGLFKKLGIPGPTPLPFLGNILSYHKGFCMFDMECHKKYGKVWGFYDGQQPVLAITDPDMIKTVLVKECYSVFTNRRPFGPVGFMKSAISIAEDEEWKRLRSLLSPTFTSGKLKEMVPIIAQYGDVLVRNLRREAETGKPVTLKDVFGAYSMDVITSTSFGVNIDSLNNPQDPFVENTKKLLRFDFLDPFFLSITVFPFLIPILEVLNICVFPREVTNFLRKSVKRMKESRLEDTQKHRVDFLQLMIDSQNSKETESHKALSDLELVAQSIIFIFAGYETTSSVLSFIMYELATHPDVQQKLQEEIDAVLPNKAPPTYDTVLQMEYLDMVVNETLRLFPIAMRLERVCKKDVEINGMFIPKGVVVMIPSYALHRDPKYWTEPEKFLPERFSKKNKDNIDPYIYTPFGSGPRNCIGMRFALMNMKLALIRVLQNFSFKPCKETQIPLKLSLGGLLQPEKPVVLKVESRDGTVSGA
Text: as §1

hERG potassium channel, sequence (Q12809 whole entry): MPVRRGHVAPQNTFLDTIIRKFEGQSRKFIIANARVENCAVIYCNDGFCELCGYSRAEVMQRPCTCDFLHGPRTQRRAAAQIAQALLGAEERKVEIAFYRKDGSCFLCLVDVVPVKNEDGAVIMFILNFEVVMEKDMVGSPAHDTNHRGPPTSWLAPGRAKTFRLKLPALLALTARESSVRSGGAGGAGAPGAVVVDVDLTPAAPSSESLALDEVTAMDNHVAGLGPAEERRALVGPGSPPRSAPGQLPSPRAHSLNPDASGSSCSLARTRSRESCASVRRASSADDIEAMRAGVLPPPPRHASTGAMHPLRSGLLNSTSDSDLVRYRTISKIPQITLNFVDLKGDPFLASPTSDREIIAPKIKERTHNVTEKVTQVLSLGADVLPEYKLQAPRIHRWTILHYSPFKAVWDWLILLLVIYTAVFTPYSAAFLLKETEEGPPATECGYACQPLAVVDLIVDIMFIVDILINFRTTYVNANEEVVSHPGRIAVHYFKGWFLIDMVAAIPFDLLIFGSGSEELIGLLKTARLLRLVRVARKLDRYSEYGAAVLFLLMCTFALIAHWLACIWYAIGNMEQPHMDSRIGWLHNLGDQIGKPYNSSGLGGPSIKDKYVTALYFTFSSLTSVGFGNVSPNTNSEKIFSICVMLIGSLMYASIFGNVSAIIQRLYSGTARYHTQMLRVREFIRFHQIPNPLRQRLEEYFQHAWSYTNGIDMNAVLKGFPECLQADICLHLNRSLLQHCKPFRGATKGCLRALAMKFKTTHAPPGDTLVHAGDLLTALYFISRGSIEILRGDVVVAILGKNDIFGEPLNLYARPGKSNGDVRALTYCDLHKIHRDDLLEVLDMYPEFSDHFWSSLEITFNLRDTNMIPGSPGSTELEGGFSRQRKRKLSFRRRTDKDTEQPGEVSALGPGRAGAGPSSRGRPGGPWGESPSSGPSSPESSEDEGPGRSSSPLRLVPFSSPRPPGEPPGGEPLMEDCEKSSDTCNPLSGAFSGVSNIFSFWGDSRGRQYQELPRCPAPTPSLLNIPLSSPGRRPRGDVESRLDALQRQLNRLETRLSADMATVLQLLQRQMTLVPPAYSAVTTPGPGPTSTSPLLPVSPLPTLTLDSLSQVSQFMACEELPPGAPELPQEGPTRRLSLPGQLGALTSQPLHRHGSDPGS

Structure (SMILES): Cc1ccc(NC(=O)C(S)CC(C)C)cc1 (stereo not drawn) [Example 2, 2-Mercapto-4-methyl-N-(p-tolyl)pentanamide]
- IC50 (hERG potassium channel): > 10 µM
- inhibition at 100 µM (MMP-7): < 10%
- IC50 (Cytotoxicity HepG2): > 100 µM
- CL/F ([1]; i.v.): 505 ± 119 mL/min/kg
- V/F ([1]; i.v.): 45.5 ± 2.8 L/kg
- time detectable in blood ([1]; i.v.): 2 h
- AUC(0-t) ([1]; mouse, blood, iv): 241 ± 22 ng·h/mL
- Cmax ([1]; mouse, blood, iv): 200 ng/mL
- half-life ([1]; mouse, blood, iv): 50 min
- Tmax ([1]; mouse, blood, iv, first measuring point): 15 min
- IC50 (HDAC-8): > 100 µM
- IC50 (CYP3A4): 15 µM
